pEC50, pIC50: −log10 of the molar value.
Test system: CCRF-CEM
Assay: In vitro anti -HIV activity tested against CEM cells infected with HIV by XTT assay
Format: functional, cell-based
Details: Homo sapiens

Compound | pEC50
CC(COCP(=O)(O)O)n1cnc2c(O)nc(N)nc21 (stereo not drawn) | 5.30
Nc1ncnc2c1ncn2CCOCP(=O)(O)O [ADEFOVIR] | 4.74
Cc1nc2c(O)nc(N)nc2n1CCOCP(=O)(O)O | < 4.00
CC(OCCn1cnc2c(O)nc(N)nc21)P(=O)(O)O (stereo not drawn) | < 4.00
CC(C)(Cn1cnc2c(O)nc(N)nc21)OCP(=O)(O)O | 5.59
Nc1nc(O)c2ncn(CC(CO)OCP(=O)(O)O)c2n1 (single isomer, unassigned; form 2) | < 3.30
Nc1nc2c(ncn2CCOCP(=O)(O)O)c(=O)[nH]1 [GS-438] | 6.70
C[C@@H](Cn1cnc2c(O)nc(N)nc21)OCP(=O)(O)O | 4.92
C[C@H](Cn1cnc2c(O)nc(N)nc21)OCP(=O)(O)O | 6.00
Nc1nc2c(ncn2CC(CO)OCP(=O)(O)O)c(=O)[nH]1 (single isomer, unassigned; form 1) | 3.30

Test system: not listed separately
Assay: Selectivity Index is the ratio of the TC50 to EC50
Details: read-out: Selectivity index

Compound | selectivity ratio
CC(COCP(=O)(O)O)n1cnc2c(O)nc(N)nc21 (stereo not drawn) | 25
Nc1ncnc2c1ncn2CCOCP(=O)(O)O [ADEFOVIR] | > 27
Cc1nc2c(O)nc(N)nc2n1CCOCP(=O)(O)O | > 1
CC(OCCn1cnc2c(O)nc(N)nc21)P(=O)(O)O (stereo not drawn) | > 1
CC(C)(Cn1cnc2c(O)nc(N)nc21)OCP(=O)(O)O | > 38
Nc1nc(O)c2ncn(CC(CO)OCP(=O)(O)O)c2n1 (single isomer, unassigned; form 2) | < 1
Nc1nc2c(ncn2CCOCP(=O)(O)O)c(=O)[nH]1 [GS-438] | 75
C[C@@H](Cn1cnc2c(O)nc(N)nc21)OCP(=O)(O)O | 25
C[C@H](Cn1cnc2c(O)nc(N)nc21)OCP(=O)(O)O | > 500
Nc1nc2c(ncn2CC(CO)OCP(=O)(O)O)c(=O)[nH]1 (single isomer, unassigned; form 1) | > 1

Test system: MRC5
Assay: In vitro antiherpesvirus activity against MRC-5 cells infected with HCMV (AD-169 strain)
Format: functional, cell-based
Details: Homo sapiens

Compound | pIC50
CC(COCP(=O)(O)O)n1cnc2c(O)nc(N)nc21 (stereo not drawn) | 5.89
CC(C)(Cn1cnc2c(O)nc(N)nc21)OCP(=O)(O)O | < 3.52
Nc1nc(O)c2ncn(CC(CO)OCP(=O)(O)O)c2n1 (single isomer, unassigned; form 2) | 6.10
Nc1nc2c(ncn2COC(CO)CO)c(=O)[nH]1 [GANCICLOVIR] | 5.40
Nc1nc2c(ncn2CCOCP(=O)(O)O)c(=O)[nH]1 [GS-438] | 7.05
C[C@@H](Cn1cnc2c(O)nc(N)nc21)OCP(=O)(O)O | 4.80
C[C@H](Cn1cnc2c(O)nc(N)nc21)OCP(=O)(O)O | 4.80
Nc1nc2c(ncn2CC(CO)OCP(=O)(O)O)c(=O)[nH]1 (single isomer, unassigned; form 1) | 5.80

Test system: not listed separately
Assay: In vitro cellular toxicity in MRC-5 cells
Format: cell-based, MRC5
Details: human, read-out: TC50 (the source's name)

Compound | CC50 [µM]
CC(COCP(=O)(O)O)n1cnc2c(O)nc(N)nc21 (stereo not drawn) | > 300
Nc1nc(O)c2ncn(CC(CO)OCP(=O)(O)O)c2n1 (single isomer, unassigned; form 2) | > 310
Nc1nc2c(ncn2CCOCP(=O)(O)O)c(=O)[nH]1 [GS-438] | 30
C[C@@H](Cn1cnc2c(O)nc(N)nc21)OCP(=O)(O)O | > 330
C[C@H](Cn1cnc2c(O)nc(N)nc21)OCP(=O)(O)O | > 330
Nc1nc2c(ncn2CC(CO)OCP(=O)(O)O)c(=O)[nH]1 (single isomer, unassigned; form 1) | > 310

Test system: not listed separately
Assay: Toxicity in vitro against CEM cells by XTT assay
Format: cell-based
Details: human, CCRF-CEM (CEM) cells; read-out: TC50 (the source's name)

Compound | CC50 [µM]
CC(COCP(=O)(O)O)n1cnc2c(O)nc(N)nc21 (stereo not drawn) | 250
Nc1ncnc2c1ncn2CCOCP(=O)(O)O [ADEFOVIR] | > 500
Cc1nc2c(O)nc(N)nc2n1CCOCP(=O)(O)O | > 100
CC(OCCn1cnc2c(O)nc(N)nc21)P(=O)(O)O (stereo not drawn) | > 100
CC(C)(Cn1cnc2c(O)nc(N)nc21)OCP(=O)(O)O | > 100
Nc1nc(O)c2ncn(CC(CO)OCP(=O)(O)O)c2n1 (single isomer, unassigned; form 2) | 350
Nc1nc2c(ncn2CCOCP(=O)(O)O)c(=O)[nH]1 [GS-438] | 15
C[C@@H](Cn1cnc2c(O)nc(N)nc21)OCP(=O)(O)O | 300
C[C@H](Cn1cnc2c(O)nc(N)nc21)OCP(=O)(O)O | > 500
Nc1nc2c(ncn2CC(CO)OCP(=O)(O)O)c(=O)[nH]1 (single isomer, unassigned; form 1) | > 500

Test system: not listed separately
Assay: In vitro cellular toxicity in vero cells
Format: cell-based
Details: chlorocebus sabaeus, read-out: TC50 (the source's name)

Compound | CC50 [µM]
CC(COCP(=O)(O)O)n1cnc2c(O)nc(N)nc21 (stereo not drawn) | 200
Cc1nc2c(O)nc(N)nc2n1CCOCP(=O)(O)O | > 330
CC(OCCn1cnc2c(O)nc(N)nc21)P(=O)(O)O (stereo not drawn) | > 330
Nc1nc(O)c2ncn(CC(CO)OCP(=O)(O)O)c2n1 (single isomer, unassigned; form 2) | > 310
CC(C)(OCCn1cnc2c(O)nc(N)nc21)P(=O)(O)O | > 330
C[C@@H](Cn1cnc2c(O)nc(N)nc21)OCP(=O)(O)O | > 330
C[C@H](Cn1cnc2c(O)nc(N)nc21)OCP(=O)(O)O | > 330
Nc1nc2c(ncn2CC(CO)OCP(=O)(O)O)c(=O)[nH]1 (single isomer, unassigned; form 1) | > 310

Same assay, conditions: read-out: TC50 (the source's name)

Compound | CC50 [µM]
Nc1nc2c(ncn2CCOCP(=O)(O)O)c(=O)[nH]1 [GS-438] | 17

Test system: Vero
Assay: In vitro antiherpesvirus activity against vero cells infected with HSV-2(G strain)[plaque reduction assay]
Format: functional, cell-based
Details: Chlorocebus sabaeus

Compound | pIC50
CC(COCP(=O)(O)O)n1cnc2c(O)nc(N)nc21 (stereo not drawn) | 4.96
Cc1nc2c(O)nc(N)nc2n1CCOCP(=O)(O)O | 3.76
CC(OCCn1cnc2c(O)nc(N)nc21)P(=O)(O)O (stereo not drawn) | 3.80
Nc1nc2c(ncn2COCCO)c(=O)[nH]1 [ACYCLOVIR] | 5.92
CC(C)(Cn1cnc2c(O)nc(N)nc21)OCP(=O)(O)O | < 3.52
Nc1nc(O)c2ncn(CC(CO)OCP(=O)(O)O)c2n1 (single isomer, unassigned; form 2) | 4.01
Nc1nc2c(ncn2CCOCP(=O)(O)O)c(=O)[nH]1 [GS-438] | 5.96
CC(C)(OCCn1cnc2c(O)nc(N)nc21)P(=O)(O)O | < 3.52
C[C@@H](Cn1cnc2c(O)nc(N)nc21)OCP(=O)(O)O | 4.37
C[C@H](Cn1cnc2c(O)nc(N)nc21)OCP(=O)(O)O | 4.09
Nc1nc2c(ncn2CC(CO)OCP(=O)(O)O)c(=O)[nH]1 (single isomer, unassigned; form 1) | 4.00

Test system: CCRF-CEM
Assay: In vitro CEM cell growth inhibition by measuring the number of cells after treatment for 72 hours
Format: functional
Details: Homo sapiens

Compound | CC50 [µM]
Nc1nc2c(ncn2CCOCP(=O)(O)O)c(=O)[nH]1 [GS-438] | 0.2
C[C@@H](Cn1cnc2c(O)nc(N)nc21)OCP(=O)(O)O | 12
C[C@H](Cn1cnc2c(O)nc(N)nc21)OCP(=O)(O)O | 180

Test system: not listed separately
Assay: In vitro cellular toxicity in WI-38 cells
Format: cell-based
Details: human, read-out: TC50 (the source's name)

Compound | CC50 [µM]
CC(C)(Cn1cnc2c(O)nc(N)nc21)OCP(=O)(O)O | > 330
